Experimental data reported in the CheMixHub viscosity set.
± gives the uncertainty stated by the source.

Assay: xn = mol fraction of the nth substance listed

SMILES: OCCO + CN(C)C=O
- viscosity (293.15 K, 101 kPa, x2 = 0.0864): 16.12 ± 0.41 mPa·s
- viscosity (293.15 K, 101 kPa, x2 = 0.1758): 11.93 ± 0.3 mPa·s
- viscosity (293.15 K, 101 kPa, x2 = 0.3623): 6.277 ± 0.16 mPa·s
- viscosity (293.15 K, 101 kPa, x2 = 0.5609): 3.23 ± 0.083 mPa·s
- viscosity (293.15 K, 101 kPa, x2 = 0.7734): 1.66 ± 0.043 mPa·s
- viscosity (293.15 K, 101 kPa, x2 = 0.8848): 1.191 ± 0.031 mPa·s
- viscosity (298.15 K, 100 kPa, x1 = 0.1049): 1.27 ± 0.6 mPa·s
- viscosity (298.15 K, 100 kPa, x1 = 0.2019): 1.64 ± 0.6 mPa·s
- viscosity (298.15 K, 100 kPa, x1 = 0.3063): 2.27 ± 0.6 mPa·s
- viscosity (298.15 K, 100 kPa, x1 = 0.3993): 2.9 ± 0.6 mPa·s
- viscosity (298.15 K, 100 kPa, x1 = 0.4986): 3.95 ± 0.6 mPa·s
- viscosity (298.15 K, 100 kPa, x1 = 0.6048): 5.35 ± 0.6 mPa·s
- viscosity (298.15 K, 100 kPa, x1 = 0.7069): 7.24 ± 0.6 mPa·s
- viscosity (298.15 K, 100 kPa, x1 = 0.8032): 9.44 ± 0.61 mPa·s
- viscosity (298.15 K, 100 kPa, x1 = 0.9054): 12.85 ± 0.61 mPa·s
- viscosity (298.15 K, 101 kPa, x1 = 0.5408): 3.065 ± 0.023 mPa·s
- viscosity (298.15 K, 101 kPa, x2 = 0.0864): 13.24 ± 0.34 mPa·s
- viscosity (298.15 K, 101 kPa, x2 = 0.1758): 9.921 ± 0.25 mPa·s
- viscosity (298.15 K, 101 kPa, x2 = 0.3623): 5.381 ± 0.14 mPa·s
- viscosity (298.15 K, 101 kPa, x2 = 0.5609): 2.852 ± 0.073 mPa·s
- viscosity (298.15 K, 101 kPa, x2 = 0.7734): 1.518 ± 0.039 mPa·s
- viscosity (298.15 K, 101 kPa, x2 = 0.8848): 1.105 ± 0.029 mPa·s
- viscosity (303.15 K, 100 kPa, x1 = 0.1049): 1.23 ± 0.6 mPa·s
- viscosity (303.15 K, 100 kPa, x1 = 0.2019): 1.52 ± 0.6 mPa·s
- viscosity (303.15 K, 100 kPa, x1 = 0.3063): 2.03 ± 0.6 mPa·s
- viscosity (303.15 K, 100 kPa, x1 = 0.3993): 2.63 ± 0.6 mPa·s
- viscosity (303.15 K, 100 kPa, x1 = 0.4986): 3.6 ± 0.6 mPa·s
- viscosity (303.15 K, 100 kPa, x1 = 0.6048): 4.53 ± 0.6 mPa·s
- viscosity (303.15 K, 100 kPa, x1 = 0.7069): 6.12 ± 0.6 mPa·s
- viscosity (303.15 K, 100 kPa, x1 = 0.8032): 7.92 ± 0.6 mPa·s
- viscosity (303.15 K, 100 kPa, x1 = 0.9054): 10.48 ± 0.61 mPa·s
- viscosity (303.15 K, 101 kPa, x2 = 0.0864): 10.91 ± 0.28 mPa·s
- viscosity (303.15 K, 101 kPa, x2 = 0.1758): 8.25 ± 0.21 mPa·s
- viscosity (303.15 K, 101 kPa, x2 = 0.3623): 4.639 ± 0.12 mPa·s
- viscosity (303.15 K, 101 kPa, x2 = 0.5609): 2.551 ± 0.065 mPa·s
- viscosity (303.15 K, 101 kPa, x2 = 0.7734): 1.392 ± 0.036 mPa·s
- viscosity (303.15 K, 101 kPa, x2 = 0.8848): 1.027 ± 0.027 mPa·s
- viscosity (308.15 K, 100 kPa, x1 = 0.1049): 1.15 mPa·s
- viscosity (308.15 K, 100 kPa, x1 = 0.2019): 1.4 ± 0.6 mPa·s
- viscosity (308.15 K, 100 kPa, x1 = 0.3063): 1.81 ± 0.6 mPa·s
- viscosity (308.15 K, 100 kPa, x1 = 0.3993): 2.41 ± 0.6 mPa·s
- viscosity (308.15 K, 100 kPa, x1 = 0.4986): 3.16 ± 0.6 mPa·s
- viscosity (308.15 K, 100 kPa, x1 = 0.6048): 4.05 ± 0.6 mPa·s
- viscosity (308.15 K, 100 kPa, x1 = 0.7069): 5.18 ± 0.6 mPa·s
- viscosity (308.15 K, 100 kPa, x1 = 0.8032): 6.83 ± 0.6 mPa·s
- viscosity (308.15 K, 100 kPa, x1 = 0.9054): 8.79 ± 0.6 mPa·s
- viscosity (308.15 K, 101 kPa, x1 = 0.0257): 0.758 ± 0.039 mPa·s
- viscosity (308.15 K, 101 kPa, x1 = 0.0458): 0.816 ± 0.041 mPa·s
- viscosity (308.15 K, 101 kPa, x1 = 0.0974): 0.872 ± 0.044 mPa·s
- viscosity (308.15 K, 101 kPa, x1 = 0.1399): 0.956 ± 0.095 mPa·s
- viscosity (308.15 K, 101 kPa, x1 = 0.1921): 1.151 ± 0.056 mPa·s
- viscosity (308.15 K, 101 kPa, x1 = 0.2568): 1.132 ± 0.11 mPa·s
- viscosity (308.15 K, 101 kPa, x1 = 0.2919): 1.453 ± 0.069 mPa·s
- viscosity (308.15 K, 101 kPa, x1 = 0.3715): 1.288 ± 0.12 mPa·s
- viscosity (308.15 K, 101 kPa, x1 = 0.3822): 1.814 ± 0.084 mPa·s
- viscosity (308.15 K, 101 kPa, x1 = 0.4762): 1.898 ± 0.18 mPa·s
- viscosity (308.15 K, 101 kPa, x1 = 0.4917): 2.392 ± 0.11 mPa·s
- viscosity (308.15 K, 101 kPa, x1 = 0.5807): 2.801 ± 0.25 mPa·s
- viscosity (308.15 K, 101 kPa, x1 = 0.5882): 3.131 ± 0.14 mPa·s
- viscosity (308.15 K, 101 kPa, x1 = 0.6745): 3.878 ± 0.34 mPa·s
- viscosity (308.15 K, 101 kPa, x1 = 0.6889): 4.137 ± 0.18 mPa·s
- viscosity (308.15 K, 101 kPa, x1 = 0.7677): 5.167 ± 0.44 mPa·s
- viscosity (308.15 K, 101 kPa, x1 = 0.783): 5.498 ± 0.23 mPa·s
- viscosity (308.15 K, 101 kPa, x1 = 0.8456): 6.582 ± 0.53 mPa·s
- viscosity (308.15 K, 101 kPa, x1 = 0.885): 7.454 ± 0.3 mPa·s
- viscosity (308.15 K, 101 kPa, x1 = 0.9229): 8.355 ± 0.64 mPa·s
- viscosity (308.15 K, 101 kPa, x1 = 0.9484): 9.02 ± 0.35 mPa·s
- viscosity (308.15 K, 101 kPa, x1 = 0.968): 10.48 ± 0.4 mPa·s
- viscosity (308.15 K, 101 kPa, x2 = 0.0864): 9.133 ± 0.23 mPa·s
- viscosity (308.15 K, 101 kPa, x2 = 0.1758): 7.023 ± 0.18 mPa·s
- viscosity (308.15 K, 101 kPa, x2 = 0.3623): 4.044 ± 0.1 mPa·s
- viscosity (308.15 K, 101 kPa, x2 = 0.5609): 2.289 ± 0.059 mPa·s
- viscosity (308.15 K, 101 kPa, x2 = 0.7734): 1.285 ± 0.033 mPa·s
- viscosity (308.15 K, 101 kPa, x2 = 0.8848): 0.957 ± 0.025 mPa·s
- viscosity (313.15 K, 100 kPa, x1 = 0.1049): 1.08 mPa·s
- viscosity (313.15 K, 100 kPa, x1 = 0.2019): 1.28 ± 0.6 mPa·s
- viscosity (313.15 K, 100 kPa, x1 = 0.3063): 1.67 ± 0.6 mPa·s
- viscosity (313.15 K, 100 kPa, x1 = 0.3993): 2.24 ± 0.6 mPa·s
- viscosity (313.15 K, 100 kPa, x1 = 0.4986): 2.82 ± 0.6 mPa·s
- viscosity (313.15 K, 100 kPa, x1 = 0.6048): 3.47 ± 0.6 mPa·s
- viscosity (313.15 K, 100 kPa, x1 = 0.7069): 4.54 ± 0.6 mPa·s
- viscosity (313.15 K, 100 kPa, x1 = 0.8032): 5.68 ± 0.6 mPa·s
- viscosity (313.15 K, 100 kPa, x1 = 0.9054): 7.45 ± 0.6 mPa·s
- viscosity (313.15 K, 101 kPa, x2 = 0.0864): 7.725 ± 0.2 mPa·s
- viscosity (313.15 K, 101 kPa, x2 = 0.1758): 5.998 ± 0.15 mPa·s
- viscosity (313.15 K, 101 kPa, x2 = 0.3623): 3.551 ± 0.091 mPa·s
- viscosity (313.15 K, 101 kPa, x2 = 0.5609): 2.064 ± 0.053 mPa·s
- viscosity (313.15 K, 101 kPa, x2 = 0.7734): 1.185 ± 0.031 mPa·s
- viscosity (313.15 K, 101 kPa, x2 = 0.8848): 0.8951 ± 0.023 mPa·s
- viscosity (318.15 K, 100 kPa, x1 = 0.1049): 0.96 mPa·s
- viscosity (318.15 K, 100 kPa, x1 = 0.2019): 1.21 ± 0.6 mPa·s
- viscosity (318.15 K, 100 kPa, x1 = 0.3063): 1.53 ± 0.6 mPa·s
- viscosity (318.15 K, 100 kPa, x1 = 0.3993): 2.12 ± 0.6 mPa·s
- viscosity (318.15 K, 100 kPa, x1 = 0.4986): 2.43 ± 0.6 mPa·s
- viscosity (318.15 K, 100 kPa, x1 = 0.6048): 3.05 ± 0.6 mPa·s
- viscosity (318.15 K, 100 kPa, x1 = 0.7069): 3.98 ± 0.6 mPa·s
- viscosity (318.15 K, 100 kPa, x1 = 0.8032): 5.04 ± 0.6 mPa·s
- viscosity (318.15 K, 100 kPa, x1 = 0.9054): 6.45 ± 0.6 mPa·s
- viscosity (318.15 K, 101 kPa, x2 = 0.0864): 6.606 ± 0.17 mPa·s
- viscosity (318.15 K, 101 kPa, x2 = 0.1758): 5.171 ± 0.13 mPa·s
- viscosity (318.15 K, 101 kPa, x2 = 0.3623): 3.139 ± 0.08 mPa·s
- viscosity (318.15 K, 101 kPa, x2 = 0.5609): 1.873 ± 0.048 mPa·s
- viscosity (318.15 K, 101 kPa, x2 = 0.7734): 1.096 ± 0.028 mPa·s
- viscosity (318.15 K, 101 kPa, x2 = 0.8848): 0.8415 ± 0.022 mPa·s
- viscosity (323.15 K, 100 kPa, x1 = 0.1049): 0.87 mPa·s
- viscosity (323.15 K, 100 kPa, x1 = 0.2019): 1.08 mPa·s
- viscosity (323.15 K, 100 kPa, x1 = 0.3063): 1.38 ± 0.6 mPa·s
- viscosity (323.15 K, 100 kPa, x1 = 0.3993): 1.92 ± 0.6 mPa·s
- viscosity (323.15 K, 100 kPa, x1 = 0.4986): 2.19 ± 0.6 mPa·s
- viscosity (323.15 K, 100 kPa, x1 = 0.6048): 2.8 ± 0.6 mPa·s
- viscosity (323.15 K, 100 kPa, x1 = 0.7069): 3.53 ± 0.6 mPa·s
- viscosity (323.15 K, 100 kPa, x1 = 0.8032): 4.4 ± 0.6 mPa·s
- viscosity (323.15 K, 100 kPa, x1 = 0.9054): 5.59 ± 0.6 mPa·s
- viscosity (323.15 K, 101 kPa, x2 = 0.0864): 5.671 ± 0.14 mPa·s
- viscosity (323.15 K, 101 kPa, x2 = 0.1758): 4.507 ± 0.12 mPa·s
- viscosity (323.15 K, 101 kPa, x2 = 0.3623): 2.789 ± 0.071 mPa·s
- viscosity (323.15 K, 101 kPa, x2 = 0.5609): 1.711 ± 0.044 mPa·s
- viscosity (323.15 K, 101 kPa, x2 = 0.7734): 1.022 ± 0.027 mPa·s
- viscosity (323.15 K, 101 kPa, x2 = 0.8848): 0.7911 ± 0.021 mPa·s
